Two compounds from ChEMBL document CHEMBL1681640, “Serendipitous discovery of a new class of agonists for the melanocortin 1 and 4 receptors and a new class of cyclophanes” (Bioorg Med Chem Lett, 2011) can be followed below.

Each structure is given as a SMILES string. Active and inactive are the calls of the source. The calls are words filed in the database; no cut-off is given here.

In assay [1] the target is T1, Melanocortin receptor 4 (Homo sapiens, UniProt P32245). Nature of the assay: Displacement of [125I]NDP-alpha-MSH from human MC4 receptor expressed in BHK cells. The assay is classed as cell-based.
Target sequence in this assay (P32245 whole entry): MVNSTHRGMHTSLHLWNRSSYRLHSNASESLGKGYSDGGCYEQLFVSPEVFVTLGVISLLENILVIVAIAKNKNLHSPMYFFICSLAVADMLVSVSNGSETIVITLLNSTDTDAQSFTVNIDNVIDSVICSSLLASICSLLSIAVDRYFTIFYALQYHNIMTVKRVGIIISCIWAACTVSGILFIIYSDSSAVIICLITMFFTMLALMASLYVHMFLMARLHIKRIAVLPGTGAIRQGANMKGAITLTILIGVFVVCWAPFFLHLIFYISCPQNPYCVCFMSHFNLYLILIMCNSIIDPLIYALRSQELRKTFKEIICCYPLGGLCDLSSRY
For assay [2], the target named is T2, Melanocyte-stimulating hormone receptor (Homo sapiens, UniProt Q01726). Nature of the assay: Agonist activity at human MC1 receptor expressed in BHK cells assessed as stimulation of agonist-induced cAMP accumulation relative to agonist. The assay is classed as functional, cell-based. (Changes in cAMP serve as a functional read-out for many G protein-coupled receptors.)
Target sequence in this assay (Q01726 whole entry, looked up): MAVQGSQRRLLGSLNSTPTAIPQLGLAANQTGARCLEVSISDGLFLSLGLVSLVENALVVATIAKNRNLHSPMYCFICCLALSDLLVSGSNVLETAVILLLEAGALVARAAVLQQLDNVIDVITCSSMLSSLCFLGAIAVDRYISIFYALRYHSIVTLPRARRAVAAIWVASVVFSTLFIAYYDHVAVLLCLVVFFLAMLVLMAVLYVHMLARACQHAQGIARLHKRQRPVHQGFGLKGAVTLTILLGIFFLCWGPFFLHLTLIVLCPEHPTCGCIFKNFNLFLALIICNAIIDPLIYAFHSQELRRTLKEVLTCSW

Assay [3] deals with T3, Melanocortin receptor 5 (Homo sapiens, UniProt P33032). Kind of assay: Displacement of [125I]NDP-alpha-MSH from human MC5 receptor expressed in BHK cells. The assay is classed as cell-based.
In assay [4] the target is T1, Melanocortin receptor 4. Nature of the assay: Agonist activity at human MC4 receptor expressed in BHK cells assessed as stimulation of agonist-induced cAMP accumulation relative to agonist. The assay is classed as functional, cell-based.
Target sequence in this assay (P32245 whole entry): as the sequence (P32245 whole entry) above
For assay [5], the target named is T2, Melanocyte-stimulating hormone receptor. Kind of assay: Agonist activity at human MC1 receptor expressed in BHK cells assessed as stimulation of agonist-induced cAMP accumulation. The assay is classed as functional, cell-based.
Target sequence in this assay (Q01726 whole entry): as the sequence (Q01726 whole entry, looked up) above
Assay [6] has as its target T4, Melanocortin receptor 3 (Homo sapiens, UniProt P41968). Kind of assay: Displacement of [125I]NDP-alpha-MSH from human MC3 receptor expressed in BHK cells. The assay is classed as cell-based. Background: Displacement assays read how much labelled ligand stays bound in the presence of the test substance.
The target in assay [7] is T4, Melanocortin receptor 3. Nature of the assay: Agonist activity at human MC3 receptor expressed in BHK cells assessed as stimulation of agonist-induced cAMP accumulation. The assay is classed as functional, cell-based.
The target of assay [8] is T1, Melanocortin receptor 4. Kind of assay: Inhibition of human MC4 receptor expressed in BHK cells in presence of SHU9119 receptor antagonist.
Target sequence in this assay (P32245 whole entry, looked up): as the sequence (P32245 whole entry) above
Assay [9] has as its target T3, Melanocortin receptor 5. Nature of the assay: Agonist activity at human MC5 receptor expressed in BHK cells assessed as stimulation of agonist-induced cAMP accumulation. The assay is classed as functional, cell-based.
In assay [10] the target is T2, Melanocyte-stimulating hormone receptor. Kind of assay: Displacement of [125I]NDP-alpha-MSH from human MC1 receptor expressed in BHK cells. The class given is cell-based.
Target sequence in this assay (Q01726 whole entry): as the sequence (Q01726 whole entry, looked up) above
In assay [11] the target is T1, Melanocortin receptor 4. Nature of the assay: Agonist activity at human MC4 receptor expressed in BHK cells assessed as stimulation of agonist-induced cAMP accumulation. The assay is classed as functional, cell-based.
Target sequence in this assay (P32245 whole entry): as the sequence (P32245 whole entry) above
The subject of another assay is Rattus norvegicus. Nature of the assay: Reduction in food intake in Sprague-Dawley rat at 0.1 to 1 mg/kg, ip for first 3 hrs. The class given is functional, organism-based.

T4 sequence (P41968 whole entry): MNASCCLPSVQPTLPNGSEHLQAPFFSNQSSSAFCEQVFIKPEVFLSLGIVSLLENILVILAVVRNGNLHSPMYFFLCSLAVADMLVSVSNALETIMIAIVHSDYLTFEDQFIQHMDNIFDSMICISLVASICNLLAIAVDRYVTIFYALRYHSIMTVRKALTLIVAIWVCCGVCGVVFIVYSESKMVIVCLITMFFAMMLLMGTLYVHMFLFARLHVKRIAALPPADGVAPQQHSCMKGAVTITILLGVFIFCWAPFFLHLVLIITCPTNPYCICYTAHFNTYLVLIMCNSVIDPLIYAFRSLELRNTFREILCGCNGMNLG
T3 sequence (P33032 whole entry): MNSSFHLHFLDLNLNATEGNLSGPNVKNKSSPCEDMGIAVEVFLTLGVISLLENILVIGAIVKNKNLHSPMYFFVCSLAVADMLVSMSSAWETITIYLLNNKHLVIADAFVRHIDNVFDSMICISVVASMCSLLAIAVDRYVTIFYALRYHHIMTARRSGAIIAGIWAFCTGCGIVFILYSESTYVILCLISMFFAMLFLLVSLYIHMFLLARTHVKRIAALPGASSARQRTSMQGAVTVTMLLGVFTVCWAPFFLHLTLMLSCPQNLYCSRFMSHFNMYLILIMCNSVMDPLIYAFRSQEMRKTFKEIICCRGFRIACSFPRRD

Regarding `COCC(=O)N[C@H]1Cc2cc3c(c(c2)Cc2ccc(cc2)Oc2cccc(c2)CN(CCCN2CCN(CCCN)CC2)C1=O)OCOC3`, the Ki on Melanocortin receptor 4 [1] is 403 nM; on Melanocortin receptor 5 [3], 1530 nM; at Melanocortin receptor 3 [6], 4530 nM; in [10], 328 nM. The Emax came out at 85% in assay [2] and 98% on Melanocortin receptor 4 [4]. In addition, the EC50 in assay [5] was 12 nM; on Melanocortin receptor 3 [7] it was > 10000 nM; on Melanocortin receptor 5 [9], > 10000 nM; at Melanocortin receptor 4 [11], 697 nM. The inhibition entry at Melanocortin receptor 4 [8] was “Active”.

For the compound `COCC(=O)N[C@H]1Cc2ccc(OC)c(c2)Cc2ccc(cc2)Oc2cccc(c2)CN(CCCN2CCN(CCCN)CC2)C1=O`, the inhibition constant Ki on Melanocortin receptor 4 [1] was 392 nM; at Melanocortin receptor 5 [3], 388 nM; on Melanocortin receptor 3 [6] it was 1180 nM; in assay [10], 116 nM. The values for the Emax (in assay [2]; at Melanocortin receptor 4 [4]) were 83% and 61%, respectively. Further, the half-maximal effective concentration (EC50) in assay [5] was 16 nM; on Melanocortin receptor 3 [7], > 10000 nM; at Melanocortin receptor 5 [9] it was > 10000 nM; on Melanocortin receptor 4 [11], 466 nM. Moreover, at Melanocortin receptor 4 [8], the inhibition result was “Active”. For the same compound, the result with Rattus norvegicus was Active.

A word on the Ki: it is the equilibrium dissociation constant of an inhibitor or competing ligand from its target. High values mean a looser hold on the target, low ones a stronger hold on the target. Broadly, the Emax is the maximal effect, on the per cent scale that the assay sets. For orientation: EC50 means the concentration that produces a half-maximal response.
